According to PubChem BioAssay AID743125 (Broad Institute, 2013):
Values joined by “and” are separate entries in the source; they are usually repeats but may differ in a detail not shown here. Identical values can stand only once. Active and inactive are the calls of the source.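 How the source made its calls: active means fitted AC50 no higher than twice the top valid dose tested for that sample; inconclusive means flat curve between -30 and -70% activity, or poor fit; inactive means the rest.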

Molecular target: PglD UDP-4-amino-sugar N-acetyltransferase (Campylobacter jejuni)
Assay: inhibition of C. jejuni PglD N-acetyltransferase – biochemical, DTNB absorbance, dry powder samples, set 5, dose response (AID 743125)
Conditions: purified PglD, DTNB absorbance 412 nm, CoA release

Row | Structure (SMILES) | AC50 | other results
1 | Cc1c(C(=O)O)sc2nc(/C=C/c3cccnc3N)[nH]c(=O)c12 | – | activity change, negative = inhibition (at 10 µM (top of the series)): inactive
2 | Cc1c(C(=O)O)sc2nc(/C=C/c3ccc(O)cn3)[nH]c(=O)c12 | – | activity change, negative = inhibition (at 1 µM (top of the series)): inactive
3 | Cc1c(C(=O)O)sc2nc(/C=C/c3cccc([N+](=O)[O-])c3)[nH]c(=O)c12 | > 39 µM (inactive) | –
4 | Cc1c(C(=O)O)sc2nc(/C=C/c3cccc(O)c3)[nH]c(=O)c12 | 27.6 µM and 3.61 µM | –
5 | Cc1c(C(=O)O)sc2nc(/C=C/c3cccc(N4CCOCC4)n3)[nH]c(=O)c12 | > 20 µM (inactive) | –
6 | Cc1c(C(=O)O)sc2nc(/C=C/c3cccc(N)c3)[nH]c(=O)c12 | 16.9 µM | –
7 | Cc1c(C(=O)O)sc2nc(/C=C/c3ccccc3O)[nH]c(=O)c12 | 24.9 µM | –
8 | Cc1c(C(=O)O)sc2nc(/C=C/c3cccc(=O)[nH]3)[nH]c(=O)c12 | 4.69 µM | –
9 | Cc1c(C(=O)O)sc2nc(/C=C/c3ccc4[nH]ccc4n3)[nH]c(=O)c12 | 7 µM | –
10 | Cc1c(C(=O)O)sc2nc(/C=C/c3ccccn3)[nH]c(=O)c12 | 7.09 µM | –
11 | COc1cccc(/C=C/c2nc3sc(C(=O)O)c(C)c3c(=O)[nH]2)c1 | 11.5 µM | –
12 | Cc1c(C(=O)O)sc2nc(/C=C/c3cccc(N4CCNCC4)c3)[nH]c(=O)c12 | – | activity change, negative = inhibition (at 38 µM (top of the series)): inactive
13 | Cc1c(C(=O)O)sc2nc(/C=C/c3cccc(OC(F)(F)F)c3)[nH]c(=O)c12 | > 39 µM (inactive) | –
